Results on one molecule are retold here after paper PMC7506137, “Selective Phosphodiesterase 1 Inhibitor BTTQ Reduces Blood Pressure in Spontaneously Hypertensive and Dahl Salt Sensitive Rats: Role of Peripheral Vasodilation” (Frontiers in Physiology, 2020).

Values joined by “and” are separate entries in the source; they are usually repeats but may differ in a detail not shown here. Equal values may be shown once. Read-outs that look alike come from different tables or passages of the source. A value given as a limit tells only on which side of the number the result lay.

What all share (experiment): PDE scintillation proximity enzyme assay
What all share (type): biochemical
For orientation: In a scintillation proximity assay essentially only radioactivity close to the scintillant gives light.

The target of one assay is T1, Human PDE11A (Homo sapiens, UniProt Q9HCR9).
T1 construct: made in house; host or cells: baculovirus-infected insect cells
The settings on record: geometric mean (SD, n). On the procedure: (§1) All PDE proteins were expressed in baculoviral infected insect cells using standard methods [pFastBac, pFastBac Dual (Invitrogen), pIEX4 (Novagen)]. See Supplementary Table 1 for DNA sequences, construct boundaries, affinity tags, and expression vectors. HIS6 tagged PDE proteins were purified using Ni-NTA agarose (Qiagen) followed by size exclusion chromatography on a Superdex 200 column (GE Healthcare) in storage buffer (20 mM Tris-HCl, pH 7.5, 150 mM NaCl, 10% Glycerol). FLAG-tagged PDE proteins including the PDE6A/6B heterodimer were purified using anti-FLAG M2-agarose (Sigma-Aldrich), after purification through NiNTA column chromatography and eluted in storage buffer (50 mM Tris-HCl, pH 7.5, 150 mM NaCl, 10% Glycerol, 0.1 mg/ml Flag peptide). All purified proteins were stored at −80°C in small aliquots.
(§2) All PDE enzyme activities were measured with a yittrium silicate based scintillation proximity assay that detects radioactive nucleotide monophosphates but not cyclic monophosphates. Assays are conducted in a total volume of 50 μl in 384 well plates (3706, Corning): comprised of 24 μl enzyme, 1 μl compound, and 25 μl of cyclic nucleotide. The general assay buffer consists of 50 mM Tris-HCl (pH 7.5) and 0.1% (w/v) bovine serum albumin (Fatty Acid Free, Sigma-Aldrich). Enzyme concentrations, substrate concentrations, and various PDE-specific buffer additives are described in Supplementary Table 1. Compounds to be tested are diluted in pure dimethyl sulfoxide (DMSO) using 10-point concentration-response curves, and 1 μl is acoustically dispensed into assay plates using the Echo555 (LabCyte). Maximal compound concentration in the reaction mixture is either 10 or 100 μM. Compounds at the appropriate concentration are pre-incubated with either of the PDE enzymes for 30 min before the reaction is started by the addition of substrate ([8-^3H]-cAMP, 20.7 Ci/mmol or [8-^3H]-cGMP; 6.5 Ci/mmol, Perkin Elmer). Reactions are allowed to proceed for 60 min at room temperature before quenching. Next, reactions are stopped by the addition of 400 μg/per well SPA beads (RPNQ0150, Perkin Elmer) and a potent non-selective PDE inhibitor to quench the reaction. Bead bound radioactivity (product) is quantified 12 h later a Microbeta counter (Perkin Elmer). Data is normalized to % inhibition using standard methods ([Campbell et al., 2004]), and IC50 values were plotted using PRISM (GraphPad Software) using the 4 parameter logistic equation ([Campbell et al., 2004]). Data for potency values are expressed as the geometric mean and arithmetic standard deviation.

The target in a further assay is T2, Human PDE1A (Homo sapiens, UniProt P54750).
T2 construct: made in house; host or cells: baculovirus-infected insect cells
Conditions: geometric mean (SD, n). On the procedure:
as §1, §2

A further assay concerns the target T3, Human PDE1B (Homo sapiens, UniProt Q01064).
T3 construct: made in house; host or cells: baculovirus-infected insect cells
The settings on record: geometric mean (SD, n). The method, then:
as §1, §2

The next assay has as its target T4, Human PDE1C (Homo sapiens, UniProt Q14123).
T4 construct: made in house; host or cells: baculovirus-infected insect cells
Conditions: geometric mean (SD, n). On the procedure: as §1, §2

Another assay deals with T5, Human PDE4D (Homo sapiens, UniProt Q08499).
T5 construct: made in house; host or cells: baculovirus-infected insect cells
The settings on record: geometric mean (SD, n). On the procedure: as §1, §2

The target of the next assay is T6, Human PDE7B (Homo sapiens, UniProt Q9NP56).
T6 construct: made in house; host or cells: baculovirus-infected insect cells
The settings on record: geometric mean (SD, n). On the procedure: as §1, §2

In a further assay the target is T7, Rat PDE3A (Rattus norvegicus, UniProt Q62865).
T7 construct: made in house; host or cells: baculovirus-infected insect cells
T7 sequence (Q62865 1-1141): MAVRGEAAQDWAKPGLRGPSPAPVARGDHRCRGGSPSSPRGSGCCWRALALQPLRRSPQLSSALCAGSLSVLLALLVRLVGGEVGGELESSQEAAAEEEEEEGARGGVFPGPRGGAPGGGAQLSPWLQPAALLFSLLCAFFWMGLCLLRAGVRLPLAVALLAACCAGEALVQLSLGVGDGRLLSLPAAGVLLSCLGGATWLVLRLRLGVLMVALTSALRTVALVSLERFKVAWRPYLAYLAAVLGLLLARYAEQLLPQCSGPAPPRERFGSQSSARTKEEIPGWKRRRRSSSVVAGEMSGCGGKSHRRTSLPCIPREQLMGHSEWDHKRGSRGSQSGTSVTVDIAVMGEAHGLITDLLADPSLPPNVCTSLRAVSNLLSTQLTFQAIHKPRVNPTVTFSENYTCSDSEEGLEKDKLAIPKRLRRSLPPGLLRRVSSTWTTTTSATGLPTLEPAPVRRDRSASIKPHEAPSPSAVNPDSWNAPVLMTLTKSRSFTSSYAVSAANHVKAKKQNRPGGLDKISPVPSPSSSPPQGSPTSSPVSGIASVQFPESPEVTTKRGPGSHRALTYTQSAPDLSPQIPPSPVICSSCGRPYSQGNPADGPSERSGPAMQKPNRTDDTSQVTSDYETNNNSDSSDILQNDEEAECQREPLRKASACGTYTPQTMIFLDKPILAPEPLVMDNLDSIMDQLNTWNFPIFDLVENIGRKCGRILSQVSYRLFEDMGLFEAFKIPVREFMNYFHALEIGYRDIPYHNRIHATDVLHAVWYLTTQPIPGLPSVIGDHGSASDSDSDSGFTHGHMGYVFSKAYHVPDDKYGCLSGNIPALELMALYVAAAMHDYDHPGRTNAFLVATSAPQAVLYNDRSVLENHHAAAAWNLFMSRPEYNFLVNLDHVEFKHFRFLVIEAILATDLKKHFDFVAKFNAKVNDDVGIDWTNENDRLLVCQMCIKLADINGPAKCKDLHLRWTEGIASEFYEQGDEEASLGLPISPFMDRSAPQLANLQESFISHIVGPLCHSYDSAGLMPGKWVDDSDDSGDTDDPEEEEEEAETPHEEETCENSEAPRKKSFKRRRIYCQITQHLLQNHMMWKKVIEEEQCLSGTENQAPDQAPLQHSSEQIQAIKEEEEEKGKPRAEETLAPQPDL
The method, then: as §2

T3 sequence (Q01064 whole entry): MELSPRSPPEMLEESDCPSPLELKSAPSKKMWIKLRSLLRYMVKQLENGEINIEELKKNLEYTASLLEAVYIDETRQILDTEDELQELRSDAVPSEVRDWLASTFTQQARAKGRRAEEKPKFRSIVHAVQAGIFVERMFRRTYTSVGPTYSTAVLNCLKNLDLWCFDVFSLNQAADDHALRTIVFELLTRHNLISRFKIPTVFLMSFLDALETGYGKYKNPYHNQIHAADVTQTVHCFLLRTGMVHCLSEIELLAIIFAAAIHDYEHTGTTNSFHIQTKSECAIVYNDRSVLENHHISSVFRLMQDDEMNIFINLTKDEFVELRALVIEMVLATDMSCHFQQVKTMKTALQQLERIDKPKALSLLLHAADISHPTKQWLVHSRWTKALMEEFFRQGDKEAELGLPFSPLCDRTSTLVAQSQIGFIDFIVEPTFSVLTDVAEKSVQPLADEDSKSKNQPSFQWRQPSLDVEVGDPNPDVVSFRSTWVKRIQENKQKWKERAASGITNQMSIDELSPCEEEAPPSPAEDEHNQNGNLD
T1 sequence (Q9HCR9 whole entry): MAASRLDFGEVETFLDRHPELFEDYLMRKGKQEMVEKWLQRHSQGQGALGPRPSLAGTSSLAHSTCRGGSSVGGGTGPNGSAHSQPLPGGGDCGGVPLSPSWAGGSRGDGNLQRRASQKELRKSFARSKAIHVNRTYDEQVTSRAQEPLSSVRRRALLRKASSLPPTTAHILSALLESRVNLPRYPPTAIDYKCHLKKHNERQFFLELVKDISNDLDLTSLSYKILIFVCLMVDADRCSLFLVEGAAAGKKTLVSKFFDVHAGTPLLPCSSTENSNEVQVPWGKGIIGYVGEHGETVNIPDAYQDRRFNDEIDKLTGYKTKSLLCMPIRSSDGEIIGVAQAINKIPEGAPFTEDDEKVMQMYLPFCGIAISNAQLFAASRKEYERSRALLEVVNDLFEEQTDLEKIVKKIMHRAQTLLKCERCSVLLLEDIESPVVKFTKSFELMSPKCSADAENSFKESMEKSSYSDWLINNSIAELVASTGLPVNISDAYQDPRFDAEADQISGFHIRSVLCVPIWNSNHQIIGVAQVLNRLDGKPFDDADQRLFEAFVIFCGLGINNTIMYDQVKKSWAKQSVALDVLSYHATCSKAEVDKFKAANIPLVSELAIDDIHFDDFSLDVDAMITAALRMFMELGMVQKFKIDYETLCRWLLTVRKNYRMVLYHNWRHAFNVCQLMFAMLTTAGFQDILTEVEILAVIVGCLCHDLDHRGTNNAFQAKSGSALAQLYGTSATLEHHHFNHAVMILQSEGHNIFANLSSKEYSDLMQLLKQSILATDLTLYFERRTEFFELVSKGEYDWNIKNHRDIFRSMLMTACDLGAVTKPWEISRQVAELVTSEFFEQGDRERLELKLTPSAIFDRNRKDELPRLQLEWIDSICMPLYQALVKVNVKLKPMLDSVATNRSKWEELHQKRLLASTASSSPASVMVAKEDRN
T2 sequence (P54750 whole entry): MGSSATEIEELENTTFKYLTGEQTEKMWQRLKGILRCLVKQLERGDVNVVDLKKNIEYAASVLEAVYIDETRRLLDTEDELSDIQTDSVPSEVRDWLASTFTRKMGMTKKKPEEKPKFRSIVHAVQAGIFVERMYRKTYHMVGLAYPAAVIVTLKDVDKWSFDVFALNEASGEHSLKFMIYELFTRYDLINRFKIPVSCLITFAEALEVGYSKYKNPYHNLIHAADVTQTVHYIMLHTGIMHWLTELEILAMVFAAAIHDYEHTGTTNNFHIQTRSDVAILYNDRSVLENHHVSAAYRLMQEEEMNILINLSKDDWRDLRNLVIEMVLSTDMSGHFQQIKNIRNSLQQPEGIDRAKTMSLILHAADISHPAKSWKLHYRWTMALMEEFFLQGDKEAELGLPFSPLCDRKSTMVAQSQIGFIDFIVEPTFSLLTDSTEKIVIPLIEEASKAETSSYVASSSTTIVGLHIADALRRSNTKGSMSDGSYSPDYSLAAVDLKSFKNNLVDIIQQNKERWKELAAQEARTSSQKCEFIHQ
T6 sequence (Q9NP56 whole entry): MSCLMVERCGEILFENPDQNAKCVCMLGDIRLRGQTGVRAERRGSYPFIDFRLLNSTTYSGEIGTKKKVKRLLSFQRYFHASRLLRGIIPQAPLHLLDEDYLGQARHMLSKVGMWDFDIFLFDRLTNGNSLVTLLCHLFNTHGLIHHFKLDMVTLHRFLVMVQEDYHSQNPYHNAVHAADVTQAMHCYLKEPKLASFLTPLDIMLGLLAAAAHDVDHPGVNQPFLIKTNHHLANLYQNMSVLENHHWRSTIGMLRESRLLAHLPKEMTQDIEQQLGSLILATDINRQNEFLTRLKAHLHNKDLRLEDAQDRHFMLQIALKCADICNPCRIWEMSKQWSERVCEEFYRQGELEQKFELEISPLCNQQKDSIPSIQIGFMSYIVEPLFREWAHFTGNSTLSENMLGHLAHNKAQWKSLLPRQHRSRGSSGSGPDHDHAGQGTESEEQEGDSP
T5 sequence (Q08499 whole entry): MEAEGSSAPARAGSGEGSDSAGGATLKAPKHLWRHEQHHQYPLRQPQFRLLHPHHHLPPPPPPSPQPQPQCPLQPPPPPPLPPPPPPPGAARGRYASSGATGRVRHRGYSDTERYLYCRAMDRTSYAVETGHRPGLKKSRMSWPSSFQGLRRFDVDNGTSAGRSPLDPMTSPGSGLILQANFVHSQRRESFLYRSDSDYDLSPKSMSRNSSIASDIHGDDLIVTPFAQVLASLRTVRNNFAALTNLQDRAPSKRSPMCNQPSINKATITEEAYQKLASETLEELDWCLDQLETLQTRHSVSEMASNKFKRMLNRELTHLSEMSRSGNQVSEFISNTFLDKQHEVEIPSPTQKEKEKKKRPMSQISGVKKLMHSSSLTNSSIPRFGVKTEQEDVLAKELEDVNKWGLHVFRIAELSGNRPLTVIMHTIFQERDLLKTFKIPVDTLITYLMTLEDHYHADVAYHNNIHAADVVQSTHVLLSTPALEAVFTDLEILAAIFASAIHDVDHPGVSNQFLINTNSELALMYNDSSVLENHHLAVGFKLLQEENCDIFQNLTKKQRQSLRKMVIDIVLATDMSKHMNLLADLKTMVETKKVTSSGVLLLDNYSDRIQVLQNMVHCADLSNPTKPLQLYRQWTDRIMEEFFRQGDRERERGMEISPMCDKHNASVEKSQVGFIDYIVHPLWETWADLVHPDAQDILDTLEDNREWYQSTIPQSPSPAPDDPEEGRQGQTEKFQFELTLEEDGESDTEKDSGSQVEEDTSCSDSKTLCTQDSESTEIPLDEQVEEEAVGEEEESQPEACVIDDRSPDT
T4 sequence (Q14123 whole entry): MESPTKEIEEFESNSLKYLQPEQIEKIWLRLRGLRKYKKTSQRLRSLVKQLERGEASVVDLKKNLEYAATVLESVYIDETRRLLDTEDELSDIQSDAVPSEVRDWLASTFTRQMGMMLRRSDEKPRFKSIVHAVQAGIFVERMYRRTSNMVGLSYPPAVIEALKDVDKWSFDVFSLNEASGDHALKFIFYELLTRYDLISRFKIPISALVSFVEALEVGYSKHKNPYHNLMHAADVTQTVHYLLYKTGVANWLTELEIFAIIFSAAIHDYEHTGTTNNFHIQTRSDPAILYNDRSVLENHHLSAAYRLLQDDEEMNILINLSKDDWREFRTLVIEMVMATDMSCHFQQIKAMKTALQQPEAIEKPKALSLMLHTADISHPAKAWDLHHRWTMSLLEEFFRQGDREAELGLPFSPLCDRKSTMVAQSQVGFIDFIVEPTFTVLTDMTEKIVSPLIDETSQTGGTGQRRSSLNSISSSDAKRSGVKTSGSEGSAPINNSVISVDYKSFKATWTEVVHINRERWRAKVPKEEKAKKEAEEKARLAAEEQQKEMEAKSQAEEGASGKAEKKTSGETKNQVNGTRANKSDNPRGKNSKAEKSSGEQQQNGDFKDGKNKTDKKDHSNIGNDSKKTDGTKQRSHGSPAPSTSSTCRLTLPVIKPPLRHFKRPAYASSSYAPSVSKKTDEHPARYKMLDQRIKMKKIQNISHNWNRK

For `O=c1c2nnc(C3(C4CC4)CC3)n2c2c(n1CC1CC1)CCCC2` [BTTQ, 1-[1,1′-bi(cyclopropyl)-1-yl]-5-(cyclopropylmethyl)-6,7,8,9-tetrahydro[1,2,4]triazolo[4,3-A]quinoxaline-4(5H)-one], the half-inhibitory concentration (IC50) – broadly, the concentration that inhibits the measured activity by half – on Human PDE11A is 2400 nM; against Human PDE1A, 1 nM; against Human PDE1B, 0.5 nM and 0.45 nM; at Human PDE1C it was 0.14 nM; at Human PDE4D it was 12000 nM; against Human PDE7B it was 1600 nM. The IC50 result at Rat PDE3A is “inactive”; on Rat PDE3A (read-out: IC50), more than 100000 nM.
